In one experiment the test system is FEMX melanoma cell line. The experiment in a line: Colony forming efficiency (CFE) resistance assay. The format is cell-based, human. How it is done: (§1) Radiation resistance. Cells (500 or 1500 per well) were plated in triplicates on 6 well plates, 24 h before treatment (Ronai et al., Oncogene 1998; 16:523-531). In all cases, plating efficiency was pre-determined so that number of cell plated was normalized respectively. Colonies (greater than 50 cells per clone) were stained with crystal violet solution (3% in 10% methanol and PBS), 14 days After treatment. % of CFE in each treatment group was calculated based on total CFE formed in the respective controls (100%).

The subject of experiment [1] is LU1205 melanoma cell line. Nature of the experiment: Colony forming efficiency (CFE) resistance assay. Type of experiment: cell-based, human. How it is done: as §1
Experiment [2] deals with Adriamycin-resistant MCF7 cell line (MCF7-Adr). Nature of the experiment: Apoptosis by FACS (hypodiploid fraction). To be noted: peptide-expressing MCF7-Adr; neo controls 3-fold; 36 h. Type of experiment: cell-based, human. As to the method: [Worded in the source for another cell line; this cell line is reported under the same test.] (§2) Treatment and apoptosis studies of stably transfected melanoma cells. Cells were exposed to UVC at 75 J/m^2 as previously described (Ronai, Z., et al., Oncogene 1998; 16:523-531). SB203580 (1-10 μM) (Calbiochem®, San Diego, Calif.), NCS (50-100 ng/ml) and mitomycin C (MMC) (0.2-1 μM) were used to treat melanoma cells. Flow cytometric analysis was performed on a FACSCalibur™ flow cytometer (Becton Dickinson) using CellQuest™ software as described previously (Nicoletti et al., J. Immunol. Methods 1991; 139:271-279). Cells were pelleted and resuspended in 0.5 ml of hypotonic buffer with 0.1% Triton X-100 containing PI (40 μg/ml) and DNase-free RNase A (1 mg/ml). Cells were incubated at 37° C. for 30 min and analyzed on a FACSCalibur™ flow cytometer (Becton Dickinson). The percentage of cells to the left of the diploid G0/1 peak, characteristic of hypodiploid cells that have lost DNA, was defined as the percentage of apoptotic cells. Analysis was performed with light scatter gating. Surface expression of Fas was determined using anti-Fas-PE antibody (PharMingen® CA) and flow cytometric analysis. Cell surface expression is measured as mean fluorescence intensity (MFI).

The subject of experiment [3] is WM1552 early-phase melanoma cell line. The experiment in a line: Apoptosis by FACS (hypodiploid fraction). Type of experiment: cell-based, human. To be noted: peptide-expressing WM1552; UV-C 75 J/m2; 36 h. As to the method:
as §2

The subject of a further experiment is Fas protein. Nature of the experiment: Western blot of overall Fas protein in melanoma cells. Particulars: peptide-expressing melanoma cells. The format is cell-based. For orientation: In western blotting, separated proteins are transferred to a membrane and probed.
The test system of the next experiment is FEMX tumor cells. The experiment in a line: Growth of transplanted FEMX tumors in mice. The format is in vivo. As to the method: Tumor growth and metastasis evaluation in vivo. Cell lines established in culture to constitutively or inducibly express the peptide were injected into mice subcutaneously (S.C.). LU1205, FEMX and SW-1 cells that expressed control or peptide II were trypsinized, resuspended in PBS and injected SC (1×10^6) into 6-7 week old mice in the lower flank. When the tumor reached the size of about 50 mm^3, 5 μM of SB203580 was injected into four areas of the LU1205 tumors every 4 days during a 2-week period. For FEMX tumors UCN-01 (2.5 mg/kg) was fed by gavage twice a day, three times per week for a total of 2 weeks. Tumor growth was monitored every two days. SW-1 cells expressing peptide II under tet-inducible vector were injected SC (1×10^6). When tumors reached a size of about 50 mm^3, the mice received doxycycline in their drinking water ([…]) for a total of 2-4 weeks. At the end of the experiment, the tumors were excised and weighed. The lungs and other organs were subjected to histopathological examination to detect metastatic lesions.

In experiment [4] the test system is AP1 complex. Nature of the experiment: Transcriptional activity mediated from AP1 target sequences. The format is cell-based. Particulars: peptide-expressing melanoma cells.
Experiment [5] relates to ATF2 target sequence (c-Jun promoter motif TGACACTA). Nature of the experiment: Electrophoretic mobility shift assay with labeled AP1 oligonucleotide. Particulars: control vs peptide-expressing SW1 cells. Type of experiment: binding, mouse. As to the method: Electrophoretic mobility shift assays were performed as described. (Ivanov and Ronada, J Biol Chem 1999; 274(20):14079-89). GST binding assays were performed with GST-peptide II as described (Adler et al., Proc Natl Acad Sci USA 1995; 92 10585-9). SW1 cells expressing control vector or peptide II were subjected to FACS analysis following their incubation with antibodies to the cell surface receptor of FAS as described above.
Background: A gel shift assay detects complexes by their altered migration in electrophoresis.

Experiment [6] has as its system ATF2 transcriptional activity. Nature of the experiment: Jun2 promoter reporter in Jun null fibroblasts. Type of experiment: cell-based.
For experiment [7], the system named is TRE-based promoter (c-Jun/AP1). Nature of the experiment: TRE-Luc reporter in c-Jun wild-type fibroblasts. Type of experiment: cell-based. As to the method:
[Worded in the source for another cell line; this cell line is reported under the same test.] Transient transfection and transcriptional analysis. Mouse melanoma tumors grown in culture were transfected with control vector or peptide II expressing luciferase or β-galactosidase constructs (Bhoumik et al., Clin. Cancer Res. 2001; 7(2):331-42). Transient transfection of different reporter constructs (0.5 cg) with expression vectors and pCMV-Cgal (0.25 Cg) into 5×10^5 melanoma cells was performed using Lipofectamine™ (Life Technologies-BRL). Transfection of the Jun2-luciferase construct permitted us to monitor activity of ATF2 and c-Jun. Jun2-Luc and TRE-Luc constructs were previously described (van Dam H., et al., EMBO J. 1993; 12:479-487; and van Dam H., et al., EMBO J. 1995; 14:1798-1811). Luciferase activity was determined using the Luciferase assay system (Promega®, Madison, Wis.) and normalized on the basis of β-galactosidase (β-Gal) levels in transfected cells. Proteins were prepared for β-Gal and Luciferase analysis at the selected time points after transfection.

The next experiment deals with JNK. The experiment in a line: In vitro phosphorylation of the peptide. Type of experiment: biochemical.
The test system of a further experiment is SW1 cells. The experiment in a line: Cell cycle distribution after synchronization and serum stimulation. The format is cell-based, mouse. To be noted: 18-24 h after serum stimulation of synchronized cells.
The test system of experiment [8] is AP1 complex. To be noted: previous studies; cited from earlier work.

No end group written: not given here.

For the substance “peptide II: N-terminal polypeptide fragment of ATF2, amino acid residues 50-100, expressed from pcDNA3 with HA-penetratin tag (EMTLKFGPARNDSVIVADQTPTPTRFLKNCEEVGLFNELASPFENEFKKAS; also: HA-penetratin tag, position not given here; UniProt P15336 50-100, looked up, fragment)”, the “decrease in the fraction of CFE” value in the experiment on FEMX melanoma cell line (peptide-expressing FEMX vs FEMX neo, 1 µM MMC, 14 days) is recorded as not above 10 fold. Moreover, in the experiment with FEMX melanoma cell line (peptide-expressing FEMX vs neo control, UV-C 9-36 J/m^2, colonies at 14 days), the “decrease in % of CFE” value is given as “up to 10 fold”. The “effects on the sensitivity to MMC (CFE)” value in experiment [1] (peptide-expressing LU1205, MMC) is “much less pronounced effects”. Besides, the “decrease in the % of CFE” value in experiment [1] (peptide-expressing LU1205 vs neo control, UV-C 9-36 J/m^2, colonies at 14 days) is recorded as not above 3 fold. In [1] (peptide-expressing melanoma cells, NCS), the “sensitivity to NCS (CFE)” value was “did not reveal substantial differences”. Also, the “increase in apoptosis following UV-treatment” value in experiment [2] turned out to be 8 fold. For the same substance, the “sensitization to UV-induced apoptosis” value in experiment [3] is “no longer was able to elicit sensitization”. Further, the “overall level of Fas protein” value in the experiment with Fas protein is “increase in the overall level of Fas protein”. In addition, the tumor growth result in the experiment with FEMX tumor cells (co-treatment: peptide-expressing FEMX + UCN-01) is on record as “tumor regression”. Also, in the experiment on FEMX tumor cells (single agent: UCN-01 by gavage, or peptide expressed in tumor cells), the tumor cell growth entry is given as “grew much more slowly”. Also, the “transcriptional activities mediated by AP1 target sequences” value in the experiment on AP1 complex [4] is listed as “lower”. The “binding of nuclear extracts to the labeled AP1 oligonucleotide” value in experiment [5] is “No significant changes”. Also, in [6], the “transcriptional activity mediated from the Jun2 promoter” value is “marked inhibition”. Further, the “increase in the activities of TRE-Luc” value in [7] was 200 fold. Besides, the “phosphorylation of the peptide by JNK” value in the experiment with JNK was “Neither JNK nor p38 was found capable of phosphorylating”. In the experiment on SW1 cells, the “number of cells in the S-phase, lower than control cell population” value was 2 fold. Moreover, the “inhibition of transcriptional activity mediated from the AP1 complex” value with AP1 complex [8] is on record as 3 fold.

Source of the values: patent US7935525B2, “Inhibition of ATF2 activity to treat cancer” (Mount Sinai School of Medicine, priority 2001, dated 2011).
